Series [1] concerns subjects with osteoarthritis of the knee. As to the kind of experiment: Osteoarthritis of the Knee Safety Study: VAS pain at the target knee. The format is in vivo, human. The procedure:
(§1) The study was designed to include 16 evaluation subjects. […] Sixteen subjects completed the study.
(§2) Patients were treated randomly and in double-blind fashion in four treatment cohorts, with each cohort having a progressively longer interval between the intra-articular administration of study medication and subsequent total knee replacement (2, 4, 7, and 14 days). […] Gross and microscopic pathology analysis was completed for each treatment cohort before the next treatment cohort was treated.
(§3) Each subject had 3 study visits: a Screening Day (Day −7 to −1), the Treatment Day (Day 0), and a Post-Treatment Day (scheduled for Day +2, +4, +7, or +14). On the Treatment Day the subject was randomized, pre-treatment evaluation was performed. The patients were brought into the procedure room, and a VAS pain score was taken (0 mm—no pain, 100 mm—extreme pain). Once the patient had marked his or her pain on the card, he/she was prepped for knee cannulation. Once the cannula was placed, the patient received by intra-articular infiltration, 3 mg/kg (maximum dose of 200 mg) of 2% lignocaine into the knee scheduled to be replaced.
VAS pain scores as well as verbal reports were taken immediately following administration, as well as prior to knee replacement surgery. No subjects discontinued from the study due to adverse events. […]

Series [2] has the same test system. As to the kind of experiment: Osteoarthritis of the Knee Safety Study: safety and tolerability of intra-articular capsaicin. It counts as in vivo, human. The procedure:
The primary objective of the study was to evaluate the safety and tolerability of intra-articular capsaicin, when co-administered with intra-articular local anesthetic, compared to placebo, in subjects with end-stage osteoarthritis of the knee, already scheduled to receive knee replacements.
as §1, §2, §3
VAS pain scores as well as verbal reports were taken immediately following administration, as well as prior to knee replacement surgery. No subjects discontinued from the study due to adverse events.
On the Post-Treatment Day, study evaluation was performed followed by the scheduled knee replacement, with intra-operative bone and soft tissue biopsies performed for subsequent examination. […] This therefore left the 3 placebo and 9 active patients from the 4 day, 7 day, and 14 day cohorts.

Series [3] relates to subjects undergoing transpositional osteotomy (bunionectomy). As to the kind of experiment: Bunionectomy Efficacy Study: VAS pain score and rescue medication. It counts as in vivo, human. Particulars: for VAS pain score (Table 4), mean +/− SEM: 1000 μg into the wound prior to closure, n = 11. On the procedure:
The primary efficacy endpoint was the proportion of subjects in each treatment group requiring opioid analgesia in the first 24 hours post-operatively. The proportions were compared amongst treatment groups using the Cochran-Haenszel test. Secondary efficacy end points included: i) proportion of subjects in each treatment group requiring opioid analgesia in the first 36 hour period post-operatively (Similarly, the proportions were compared amongst treatment groups using the Cochran-Haenszel test); ii) proportion of subjects in each treatment group requiring opioid analgesia in the 10 day period post-operatively (Similarly, the proportions were compared amongst treatment groups using the Cochran-Haenszel test); iii) time to first usage of opioid analgesia in each treatment group (a survival analysis approach will be used: the product-limit (Kaplan-Meier) method will be applied to time to first usage of opioid analgesia. The median time to first usage of opioid analgesia will be estimated in both treatment groups. Pairwise comparisons will be performed to test for equality of the survival curves between the 2 treatment groups using both the log-rank and the Wilcoxon test); iv) total usage of analgesia in each treatment group (the total usage of analgesia will be compared by an analysis of variance with treatment and center as independent variables. A pairwise comparison will be performed between the treatment groups); and v) VAS assessment of pain at the site of operation in each treatment group (The VAS score at each time point will be compared by an analysis of variance with treatment and center as independent variables. A pairwise comparison will be performed between the treatment groups). […] The efficacy analysis was performed on the data obtained ten days postoperatively. The safety analysis was performed based on the safety data for the entire study, including the 6 week and 12 week follow-up periods. The blind was broken at the time the efficacy analysis was performed. However, the individual treatment assignment was available to the statistical analysis group only. All other personnel involved in the study, including the Investigator, study monitor and proprietary staff, remained blinded until the entire study was completed.
The study was designed to include 40 evaluation subjects. […] Each subject had six (6) study visits: a Screening Day (Day −28 to −1), an Operation Day (Day 0), and four (4) Follow-up visits (scheduled for Days 3, 10 and weeks 6 and 12).
On Operation Day (Day 0) the following was performed: a) Pre-operation: Prior to the initiation of an ankle block, inclusion/exclusion criteria assessment was performed. […] Immediately prior to wound closure, the Investigator slowly dripped the study medication (4 mL) from a syringe into the wound, ensuring even tissue exposure. The wound was then closed according to normal practices and procedures.
In the 24 hours following administration of study medication, vital signs (supine pulse rate and blood pressure) were recorded at 1, 2, 4 and 24 hours post administration. VAS assessment of pain at the operation site was performed at 1, 4, 8, 12 and 24 hours post administration. In those instances where VAS measurements coincide with blood sampling procedures, the VAS assessment was performed first. […] The quantity of each blood sample was 10 mL. Laboratory safety assessments, e.g., haematology, biochemistry, urinalysis were performed at 24 hours post administration. Adverse events were spontaneously reported by the subject and recorded. Rescue analgesia medication was provided to the subject if required (initially diclofenac 50 mg, repeated at 8 hourly intervals if necessary). When diclofenac was judged by the Investigator to provide inadequate pain relief then the subject was provided with alfentanil, 1 mg, repeated at 6 hourly intervals when necessary.

The subject of series [4] is radiation induced hyperalgesia. Conditions: systemically delivered, cited from earlier work.

Several values for one entry are separate records, joined by “and”; a condition that tells them apart may be missing. Equal entries are not always repeated.

`COc1cc(CNC(=O)CCCC/C=C/C(C)C)ccc1O` [capsaicin, N-(4-hydroxy-3-methoxybenzyl)-8-methylnon-trans-6-enamide]: the “reduction of VAS pain score, prior to drug administration vs day of surgery” value in series [1] (9 active patients of the 4 day, 7 day and 14 day cohorts, 10, 100 and 300 μg pooled) is listed as 62±14%. Besides, the “treatment related indication of efficacy (VAS)” value in series [1] (dose levels 10 μg, 100 μg and 300 μg) was “No clear treatment related indication of efficacy was seen”. Further, in series [2] (300 μg dose group, individual subjects), the “duration of post-administration (hyper) algesic pain” value was 17 minutes and 25 minutes (2×) and 42 minutes. Further, the “proprioception at the injected knee” value in series [2] (any dose group, any time point) is listed as “no discernable effect”. In addition, in series [2] (burning sensation, 100 and 300 μg dose groups), the “average duration of post injection hyperalgesia” value is on record as “less than thirty minutes”. In addition, in series [2] (in vivo), the “erythema, edema or hemorrhage at the site of injection” value is listed as “no treatment related signs”; the “histopathological examination of soft tissue, cartilage and bone” value is listed as “no treatment related effects on soft tissue, cartilage, or bone”; the “laboratory safety parameters and vital signs” value was “no treatment related effects on laboratory safety parameters or vital signs”; the systemic side effects entry is listed as “No treatment related systemic side effects were seen”. Besides, the “leakage of study drug from the joint space” value in series [2] (intra-articular, knee) is reported as “low leakage”. In series [2] (knee tissue at replacement), the “gross and microscopic pathology” value is given as “normal”. Further, the “VAS pain score (Table 4), mean +/− SEM” value in series [3] (8 hr) is 5.5 +/− 2.3. For the same compound, the “VAS pain score (Table 4), mean +/− SEM” value in series [3] (12 hr) is 8.2 +/− 3.8. Further, the “VAS pain score (Table 4), mean +/− SEM” value in series [3] (24 hr) is 1.9 +/− 1.0. For the same compound, in series [3] (48 hr), the “VAS pain score (Table 4), mean +/− SEM” value is on record as 5.9 +/− 2.5. Besides, the “effect on opioid rescue” value in series [3] (1000 μg prior to wound closure) is “decreased opioid rescue”. In addition, in series [3] (1000 μg prior to wound closure, individual subjects), the “time at which a subject required rescue” value is 1 h and 4 h and 5 h and 8 h and 12 h. Moreover, the “effect on radiation induced hyperalgesia” value in series [4] (final doses of 25 mg/kg or less prior to ultra violet radiation) is given as “prevented radiation induced hyperalgesia”. In addition, the “effect on pain threshold” value in series [4] (final doses of 25 mg/kg or less) was “did not elevate the pain threshold above normal range”.

These data come from patent publication US8420600B2 (Vallinex, Inc., priority 2002, dated 2013).
